Source: ChEMBL document CHEMBL1201862, “PubChem BioAssay data set” (2004)
The source made the active and inactive calls.

Experiments:
[1] = biological target: Adenosylmethionine-8-amino-7-oxononanoate aminotransferase (Mycobacterium tuberculosis, UniProt P9WQ81); experiment: Mycobacterium tuberculosis BioA enzyme inhibitor Measured in Biochemical System Using Plate Reader - 2163-02_Inhibitor_Dose_CherryPick_Activity.; type: functional, Mycobacterium tuberculosis UT205
[2] = biological target: T1, Polyadenylate-binding protein 1 (Homo sapiens, UniProt P11940); experiment: PABP1 MLLE–PAM2 binding inhibitor potency, dose response, biochemical, fluorescence polarization, FITC-PAM2 peptide (AID 602259); type: functional; details: read-out: IC50_Mean
[3] = biological target: T1, Polyadenylate-binding protein 1; experiment: PABP1 MLLE–PAM2 interaction inhibitors, dose response, miRNA deadenylation inhibitor project, biochemical, fluorescence polarization, Cy5-PAM2 peptide, secondary (AID 602260); type: functional; details: read-out: IC50_Mean
[4] = biological target: T2, Corticotropin-releasing factor receptor 2/Corticotropin-releasing factor-binding protein (Homo sapiens, UniProt P24387+Q13324); experiment: activators of CRF receptor 2 with binding protein – uHTS hits, confirmation (AID 602473); type: functional; details: read-out: EC50_Mean
T2 sequence (Q13324 whole entry): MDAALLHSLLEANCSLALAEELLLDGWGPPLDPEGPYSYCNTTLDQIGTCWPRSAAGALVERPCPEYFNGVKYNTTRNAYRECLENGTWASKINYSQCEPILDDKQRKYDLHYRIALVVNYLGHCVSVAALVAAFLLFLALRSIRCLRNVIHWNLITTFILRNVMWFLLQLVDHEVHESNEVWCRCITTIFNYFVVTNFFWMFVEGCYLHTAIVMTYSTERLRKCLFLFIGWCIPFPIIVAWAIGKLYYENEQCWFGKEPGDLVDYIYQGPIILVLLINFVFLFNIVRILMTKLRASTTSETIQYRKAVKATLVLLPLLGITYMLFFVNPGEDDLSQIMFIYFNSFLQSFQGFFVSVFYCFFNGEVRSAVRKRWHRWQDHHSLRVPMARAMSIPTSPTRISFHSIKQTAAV
T2 sequence (P24387 whole entry): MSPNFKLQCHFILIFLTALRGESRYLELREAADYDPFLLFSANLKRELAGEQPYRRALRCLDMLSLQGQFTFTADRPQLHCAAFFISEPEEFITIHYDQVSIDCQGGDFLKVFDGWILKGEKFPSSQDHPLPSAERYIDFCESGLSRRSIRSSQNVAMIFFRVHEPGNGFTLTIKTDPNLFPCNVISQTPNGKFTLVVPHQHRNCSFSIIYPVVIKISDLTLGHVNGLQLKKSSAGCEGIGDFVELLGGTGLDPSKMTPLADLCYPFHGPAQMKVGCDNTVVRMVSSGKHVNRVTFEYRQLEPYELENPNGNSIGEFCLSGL

[5] = biological target: T2, Corticotropin-releasing factor receptor 2/Corticotropin-releasing factor-binding protein; experiment: Dose Response confirmation of uHTS hits for small molecule antagonists of the CRF-binding protein and CRF-R2 receptor complex.; type: functional; details: read-out: IC50_Mean
[6] = CRF-BP/CRF-R2 complex antagonists, dose response, cell-based, uHTS hits, 384-well (AID 651639); type: functional, Homo sapiens; details: read-out: IC50_Mean
[7] = biological target: Protein Wnt-3a (Mus musculus, UniProt P27467); experiment: Wnt3a-driven reporter signaling inhibition, dose response, selectivity assay for Gli-SUFU antagonist project, Wnt-LIGHT cells, luminescence (AID 651570); type: functional; details: read-out: IC50_Mean;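 further: Wnt-LIGHT reporter cells stimulated with conditioned medium from Wnt3a-producing cells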
[8] = system: INS1; experiment: beta cell apoptosis inhibitors, cytokine rescue, dose response, luminescence, retest (AID 449756); type: functional, cell-based; details: Rattus norvegicus;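 further: cell death triggered by IL-1 beta plus TNF-alpha plus IFN-gamma mixture; protective hits raise ATP signal compared with cytokine alone wells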
[9] = StAR promoter reporter inhibition counter-screen, dose response, counter-screen for LRH-1 inverse agonist project, cell-based, luminescence, luciferase reporter (AID 651969); type: functional
[10] = biological target: Nuclear receptor subfamily 5 group A member 2 (Homo sapiens, UniProt O00482); type: functional, cell-based;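 further: HEK293T cells transfected with LRH-1 and a StAR promoter luciferase reporter; potency for inhibitors that lower LRH-1 driven reporter light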
[11] = biological target: Steroidogenic factor 1 (Homo sapiens, UniProt Q13285); experiment: Counterscreen for inverse agonists of the liver receptor homolog-1 (LRH-1; NR5A2): Luminescence-based cell-based high throughput dose response assay to identify inverse agonists of the Steroidogenic Factor 1 Nuclear Receptor (SF1; NR5A1).; type: functional
[12] = biological target: DNA repair and recombination protein RAD54-like (Homo sapiens, UniProt Q92698); experiment: inhibitors of human RAD54 branch migration, confirmation, biochemical, fluorescence, cherry-picked samples, dose series (AID 651657); type: functional
[13] = Shn3 3'UTR reporter inhibitors, dose response, cell-based, Clone20 osteoblasts, firefly luciferase, cherry-picked (AID 624132); type: functional;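 further: firefly luciferase luminescence from reporter carrying the Shn3 3'UTR in osteoblasts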
[14] = control 3'UTR Renilla luciferase suppression, dose response, counter-screen for Shn3 inhibitor project, cell-based, Clone20-Shn3RL, cherry-picked (AID 624133); type: functional
[15] = cytotoxicity in KRAS-transformed pancreatic duct cells, primary screen, cell-based, fluorescence, HTS (AID 431); type: functional; details: Homo sapiens;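 further: cell line used: HPDE-C7K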
[16] = ARNT/TACC3 interaction disruptors, potency, confirmation, biochemical, AlphaScreen, cherry-picked samples (AID 651703); type: functional, Homo sapiens;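 further: His-tagged ARNT PAS-B domain paired with GST-TACC3 E629A dimer coactivator fragment; potency of inhibitors that break up the complex and lower AlphaScreen signal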
[17] = biological target: T3, Histone-lysine N-methyltransferase NSD2 (Homo sapiens, UniProt O96028); type: biochemical
T3 sequence (O96028 whole entry): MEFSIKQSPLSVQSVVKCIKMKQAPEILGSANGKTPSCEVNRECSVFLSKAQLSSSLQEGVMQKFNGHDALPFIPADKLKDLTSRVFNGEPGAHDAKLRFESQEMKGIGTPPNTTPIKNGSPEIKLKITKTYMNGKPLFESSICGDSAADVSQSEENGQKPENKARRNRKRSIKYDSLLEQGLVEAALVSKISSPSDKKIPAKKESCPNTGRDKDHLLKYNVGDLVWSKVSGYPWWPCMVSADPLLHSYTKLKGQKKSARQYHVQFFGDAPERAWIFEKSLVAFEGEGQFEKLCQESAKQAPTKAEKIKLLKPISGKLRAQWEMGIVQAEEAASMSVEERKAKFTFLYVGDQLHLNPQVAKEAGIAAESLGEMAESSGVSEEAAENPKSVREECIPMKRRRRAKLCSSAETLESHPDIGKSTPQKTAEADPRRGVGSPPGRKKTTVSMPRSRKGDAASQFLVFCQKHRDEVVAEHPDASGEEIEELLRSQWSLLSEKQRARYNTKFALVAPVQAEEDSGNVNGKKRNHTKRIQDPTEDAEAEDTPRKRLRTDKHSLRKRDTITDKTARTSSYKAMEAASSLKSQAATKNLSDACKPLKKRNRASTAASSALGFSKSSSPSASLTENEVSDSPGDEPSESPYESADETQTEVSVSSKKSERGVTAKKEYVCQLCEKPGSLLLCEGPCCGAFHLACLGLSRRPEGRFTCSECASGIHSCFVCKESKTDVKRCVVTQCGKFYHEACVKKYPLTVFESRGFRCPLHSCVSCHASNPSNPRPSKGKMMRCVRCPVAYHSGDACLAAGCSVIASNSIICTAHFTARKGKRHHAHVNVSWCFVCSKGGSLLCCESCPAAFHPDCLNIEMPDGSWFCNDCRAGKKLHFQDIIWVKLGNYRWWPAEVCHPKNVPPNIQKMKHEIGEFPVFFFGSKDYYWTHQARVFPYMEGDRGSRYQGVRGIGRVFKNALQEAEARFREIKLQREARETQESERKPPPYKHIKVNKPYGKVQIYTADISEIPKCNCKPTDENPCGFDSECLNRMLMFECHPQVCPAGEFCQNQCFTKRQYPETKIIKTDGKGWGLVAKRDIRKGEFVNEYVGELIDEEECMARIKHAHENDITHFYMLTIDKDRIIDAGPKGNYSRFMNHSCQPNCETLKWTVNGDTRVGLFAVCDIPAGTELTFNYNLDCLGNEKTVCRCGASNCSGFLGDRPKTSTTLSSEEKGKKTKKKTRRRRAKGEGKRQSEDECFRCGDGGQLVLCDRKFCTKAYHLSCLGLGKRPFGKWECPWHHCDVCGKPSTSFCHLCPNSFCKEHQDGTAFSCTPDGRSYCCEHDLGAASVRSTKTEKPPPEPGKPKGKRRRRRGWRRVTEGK

[18] = cytotoxicity in HPDE-C7 cells, cell-based, fluorescence, HTS (AID 430); type: functional; details: Homo sapiens
[19] = biological target: T4, Apoptotic protease-activating factor 1 (Homo sapiens, UniProt O14727); type: functional
T4 sequence (O14727 whole entry): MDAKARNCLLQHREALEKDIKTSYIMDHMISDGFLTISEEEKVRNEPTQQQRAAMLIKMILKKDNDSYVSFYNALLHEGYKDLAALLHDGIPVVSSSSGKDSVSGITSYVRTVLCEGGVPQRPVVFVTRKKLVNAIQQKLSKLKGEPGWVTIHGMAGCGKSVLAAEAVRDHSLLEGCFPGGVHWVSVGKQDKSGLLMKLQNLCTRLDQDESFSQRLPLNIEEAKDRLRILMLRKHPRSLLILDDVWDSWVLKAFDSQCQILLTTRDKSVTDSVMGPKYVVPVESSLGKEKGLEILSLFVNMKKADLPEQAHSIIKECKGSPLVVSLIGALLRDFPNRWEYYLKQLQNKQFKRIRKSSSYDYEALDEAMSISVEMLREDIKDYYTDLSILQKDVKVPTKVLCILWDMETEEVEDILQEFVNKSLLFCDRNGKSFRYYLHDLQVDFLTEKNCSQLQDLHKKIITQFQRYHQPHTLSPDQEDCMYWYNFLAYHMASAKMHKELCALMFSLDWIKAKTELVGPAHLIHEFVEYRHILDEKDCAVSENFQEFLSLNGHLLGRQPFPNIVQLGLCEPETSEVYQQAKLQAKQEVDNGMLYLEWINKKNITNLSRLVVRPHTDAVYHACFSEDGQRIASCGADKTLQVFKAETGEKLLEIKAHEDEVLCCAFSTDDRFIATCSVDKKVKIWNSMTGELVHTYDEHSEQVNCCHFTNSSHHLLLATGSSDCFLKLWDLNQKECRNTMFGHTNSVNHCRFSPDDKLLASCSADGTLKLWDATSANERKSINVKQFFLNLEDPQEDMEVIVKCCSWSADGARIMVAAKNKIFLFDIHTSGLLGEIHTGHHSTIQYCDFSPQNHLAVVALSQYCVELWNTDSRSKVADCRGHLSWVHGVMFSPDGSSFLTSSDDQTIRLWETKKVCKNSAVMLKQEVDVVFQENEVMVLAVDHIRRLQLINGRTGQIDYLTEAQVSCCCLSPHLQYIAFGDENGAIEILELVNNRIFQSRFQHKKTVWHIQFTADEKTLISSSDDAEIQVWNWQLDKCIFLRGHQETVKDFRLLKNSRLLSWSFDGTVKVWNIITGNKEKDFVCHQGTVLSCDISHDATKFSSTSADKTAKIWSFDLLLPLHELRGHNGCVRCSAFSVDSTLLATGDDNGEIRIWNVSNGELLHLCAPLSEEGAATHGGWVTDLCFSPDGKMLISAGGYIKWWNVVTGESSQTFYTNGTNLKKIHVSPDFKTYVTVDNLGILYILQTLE

[20] = HepG2 cell cytotoxicity, dose response, cytotoxicity control for Shn3 inhibitor project, CellTiter-Glo, cherry-picked (AID 624134); type: functional, cell-based
[21] = system: Vero; experiment: cells; type: functional; details: Chlorocebus sabaeus
[22] = microbe, parasite or virus in culture; type: functional; details: Mycobacterium tuberculosis
[23] = system: HEK293; experiment: inhibitors of LMP1-driven NF-kB reporter, dose response, cell-based, HEK293, luciferase, cherry-pick (AID 588343); type: functional; details: Homo sapiens
[24] = biological target: T5, Interleukin-8 (Homo sapiens, UniProt P10145); experiment: Dose Response confirmation of uHTS small molecule hits for cystic fibrosis induced NFkb Inhibitors in a PAF-induced IL8 counterscreen.; type: functional; details: read-out: IC50_Mean
T5 sequence (P10145 whole entry): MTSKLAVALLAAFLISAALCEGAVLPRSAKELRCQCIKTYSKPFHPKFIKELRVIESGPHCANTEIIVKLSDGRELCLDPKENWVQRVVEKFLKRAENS

T1 sequence (P11940 whole entry): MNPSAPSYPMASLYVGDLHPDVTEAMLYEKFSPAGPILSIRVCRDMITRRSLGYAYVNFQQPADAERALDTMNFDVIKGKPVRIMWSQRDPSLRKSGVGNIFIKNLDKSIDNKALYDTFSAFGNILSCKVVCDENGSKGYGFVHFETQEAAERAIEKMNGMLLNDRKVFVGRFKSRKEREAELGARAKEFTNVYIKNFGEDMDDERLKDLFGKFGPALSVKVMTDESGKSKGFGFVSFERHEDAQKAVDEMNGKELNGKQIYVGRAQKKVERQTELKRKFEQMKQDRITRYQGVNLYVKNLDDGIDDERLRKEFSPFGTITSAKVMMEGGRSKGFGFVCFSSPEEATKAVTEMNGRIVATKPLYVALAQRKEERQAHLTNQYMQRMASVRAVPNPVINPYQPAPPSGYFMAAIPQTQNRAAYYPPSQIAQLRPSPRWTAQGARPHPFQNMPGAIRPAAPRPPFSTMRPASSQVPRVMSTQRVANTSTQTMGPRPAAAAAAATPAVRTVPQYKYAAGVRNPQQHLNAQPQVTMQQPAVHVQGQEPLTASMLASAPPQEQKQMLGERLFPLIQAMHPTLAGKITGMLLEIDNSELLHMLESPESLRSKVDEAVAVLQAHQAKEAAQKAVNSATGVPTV
Sequence of Steroidogenic factor 1 (Q13285 whole entry): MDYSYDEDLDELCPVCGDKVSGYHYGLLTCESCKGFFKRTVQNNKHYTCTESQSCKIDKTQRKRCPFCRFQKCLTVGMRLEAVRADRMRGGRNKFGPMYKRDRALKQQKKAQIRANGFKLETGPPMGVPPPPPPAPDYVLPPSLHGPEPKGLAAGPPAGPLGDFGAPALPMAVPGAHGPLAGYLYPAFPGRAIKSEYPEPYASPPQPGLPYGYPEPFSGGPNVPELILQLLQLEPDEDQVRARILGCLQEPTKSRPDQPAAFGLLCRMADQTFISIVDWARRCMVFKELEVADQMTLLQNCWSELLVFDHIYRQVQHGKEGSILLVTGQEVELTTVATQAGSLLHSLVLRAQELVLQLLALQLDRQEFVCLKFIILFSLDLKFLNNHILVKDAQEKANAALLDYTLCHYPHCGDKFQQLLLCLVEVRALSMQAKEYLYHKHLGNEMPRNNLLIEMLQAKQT
Sequence of Nuclear receptor subfamily 5 group A member 2 (O00482 whole entry): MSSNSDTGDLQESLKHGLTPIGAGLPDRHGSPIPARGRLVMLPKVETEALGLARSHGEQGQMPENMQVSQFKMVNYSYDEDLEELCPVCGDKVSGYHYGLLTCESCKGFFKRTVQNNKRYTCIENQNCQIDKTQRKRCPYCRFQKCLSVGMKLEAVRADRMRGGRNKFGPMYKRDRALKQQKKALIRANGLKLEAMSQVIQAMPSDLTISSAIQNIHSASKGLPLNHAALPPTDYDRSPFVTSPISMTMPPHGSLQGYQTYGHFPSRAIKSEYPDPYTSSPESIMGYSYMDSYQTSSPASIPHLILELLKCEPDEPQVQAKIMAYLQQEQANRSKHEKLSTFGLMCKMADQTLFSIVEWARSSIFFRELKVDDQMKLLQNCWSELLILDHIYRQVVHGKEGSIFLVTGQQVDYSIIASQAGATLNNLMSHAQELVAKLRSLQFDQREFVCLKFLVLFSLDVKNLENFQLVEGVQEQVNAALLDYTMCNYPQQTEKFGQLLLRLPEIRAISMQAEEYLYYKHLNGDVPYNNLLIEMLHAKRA
Sequence of Adenosylmethionine-8-amino-7-oxononanoate aminotransferase (P9WQ81 whole entry): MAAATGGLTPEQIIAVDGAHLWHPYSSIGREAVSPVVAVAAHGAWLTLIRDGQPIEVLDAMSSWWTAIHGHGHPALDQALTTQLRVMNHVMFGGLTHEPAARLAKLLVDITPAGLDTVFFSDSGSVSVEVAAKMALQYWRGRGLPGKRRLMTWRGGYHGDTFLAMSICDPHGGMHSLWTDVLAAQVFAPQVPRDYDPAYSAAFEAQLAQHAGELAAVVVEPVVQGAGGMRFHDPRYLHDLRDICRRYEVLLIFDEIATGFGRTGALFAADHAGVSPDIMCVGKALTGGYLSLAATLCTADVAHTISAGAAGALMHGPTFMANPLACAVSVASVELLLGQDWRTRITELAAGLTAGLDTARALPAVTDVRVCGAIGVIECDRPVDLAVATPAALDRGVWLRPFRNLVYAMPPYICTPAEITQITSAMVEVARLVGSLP
Sequence of Protein Wnt-3a (P27467 whole entry): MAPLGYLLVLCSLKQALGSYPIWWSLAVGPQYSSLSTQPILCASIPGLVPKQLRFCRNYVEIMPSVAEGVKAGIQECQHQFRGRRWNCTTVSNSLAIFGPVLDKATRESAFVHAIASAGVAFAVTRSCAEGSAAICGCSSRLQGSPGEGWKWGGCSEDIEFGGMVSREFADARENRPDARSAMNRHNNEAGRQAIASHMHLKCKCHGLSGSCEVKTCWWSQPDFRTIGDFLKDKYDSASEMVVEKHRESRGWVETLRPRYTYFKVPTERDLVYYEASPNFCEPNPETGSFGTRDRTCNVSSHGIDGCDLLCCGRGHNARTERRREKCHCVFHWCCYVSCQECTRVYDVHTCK
Sequence of DNA repair and recombination protein RAD54-like (Q92698 whole entry): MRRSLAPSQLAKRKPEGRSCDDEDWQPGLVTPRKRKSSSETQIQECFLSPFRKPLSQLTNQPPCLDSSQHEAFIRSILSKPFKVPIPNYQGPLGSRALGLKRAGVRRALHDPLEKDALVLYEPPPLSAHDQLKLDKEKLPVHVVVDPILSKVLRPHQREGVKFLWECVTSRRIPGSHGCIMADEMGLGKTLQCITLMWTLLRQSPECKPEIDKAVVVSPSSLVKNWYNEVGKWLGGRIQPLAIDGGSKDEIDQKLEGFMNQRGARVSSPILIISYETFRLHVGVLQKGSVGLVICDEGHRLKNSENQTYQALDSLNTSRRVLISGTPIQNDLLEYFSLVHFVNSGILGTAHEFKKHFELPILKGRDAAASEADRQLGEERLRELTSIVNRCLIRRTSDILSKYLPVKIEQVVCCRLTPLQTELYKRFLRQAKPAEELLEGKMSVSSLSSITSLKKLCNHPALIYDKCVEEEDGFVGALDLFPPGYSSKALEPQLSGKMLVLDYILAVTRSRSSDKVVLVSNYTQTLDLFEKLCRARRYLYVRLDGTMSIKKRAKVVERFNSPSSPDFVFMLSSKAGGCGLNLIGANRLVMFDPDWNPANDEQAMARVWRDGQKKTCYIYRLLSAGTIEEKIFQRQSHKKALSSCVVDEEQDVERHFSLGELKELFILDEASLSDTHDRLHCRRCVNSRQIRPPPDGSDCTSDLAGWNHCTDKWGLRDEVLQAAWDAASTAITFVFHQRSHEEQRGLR

## CC(=O)c1ccc(C(=O)N2CCCC(C(=O)c3ccc(Cl)cc3)C2)s1 (stereo unspecified)
[1]
  AC50: 2.51 µM (active)

## CNC(=O)C[C@H]1CC[C@@H]2[C@H](COC[C@@H](O)CN2C(=O)Nc2cccc(OC)c2)O1
[1]
  AC50: 4.57 µM (active)

## CC(C)C(=O)Nc1ccc(NC(=S)NC(=O)c2ccc([N+](=O)[O-])cc2)cc1
[2]
  IC50: > 66 µM (inactive)
[3]
  IC50: > 66 µM (inactive)

## Nc1nnc(SCc2ccc(F)cc2Cl)s1
[4]
  EC50: > 53 µM (inactive)
[5]
  IC50: 14.3 µM (active)
[6]
  IC50: 0.941 µM (active)

## Cc1sc2ncnc(NCC(O)c3ccc([N+](=O)[O-])cc3)c2c1C (stereo unspecified)
[7]
  IC50: 0.544 µM (active)
[8]
  AC50: 3.56 µM (active)

## COc1ccc(C2Nc3ccccc3C(=O)N2c2ccccc2)cc1CSc1ccccn1 (stereo unspecified)
[4]
  EC50: > 53 µM (inactive)
[5]
  IC50: 2.16 µM (active)
[6]
  IC50: 17.3 µM (active)

## CCCc1cc(=O)oc2cc(C)cc(OCC(=O)NC3CC3)c12
[9]
  IC50: 35.9 µM (inactive)
[10]
  IC50: 1.31 µM (active)
[11]
  IC50: 0.0932 µM (active)

## CC(N)c1csc(Nc2nncc3ccccc23)n1 (stereo unspecified)
[12]
  AC50: 28.5 µM (active)

## Cc1ccnc(SC2CC(=O)N(c3ccccc3)C2=O)n1 (stereo unspecified)
[2]
  IC50: > 66 µM (inactive)
[3]
  IC50: > 66 µM (inactive)

## O=C(N[C@@H]1C/C=C\C[C@H](CC(=O)N(CCO)Cc2ccccc2)C(=O)NC[C@@H](c2ccccc2)OC1=O)OCC1c2ccccc2-c2ccccc21
[7]
  IC50: 4.4 µM (active)
[13]
  AC50: 4.5 µM (active)
[14]
  AC50: 4.9 µM (active)

## COCCCn1c(N)c(C(=O)NCCC(C)C)c2nc3ccccc3nc21
[15]
  EC50: 12 µM (active)
[16]
  AC50: 74.7 µM (active)
[17]
  AC50: 15.9 µM (active)
[18]
  EC50: 11.3 µM (active)
[19]
  IC50: 46.2 µM (active)

## CCOC(=O)Oc1c(OC)cc(C(=O)O[C@@H]2C[C@@H]3CN4CCc5c([nH]c6cc(OC)ccc56)[C@H]4C[C@@H]3[C@H](C(=O)OC)[C@H]2OC)cc1OC [SYROSINGOPINE]
[13]
  AC50: 10.7 µM (active)
[20]
  AC50: 50.6 µM (active)
[14]
  AC50: 22.4 µM (active)
[21]
  CC50: 11.9 µM (active)
[22]
  CC50: 24.6 µM (active)
[23]
  AC50: 24.6 µM (active)
[24]
  IC50: > 79 µM (inactive)

## O=C(COc1ccc2c3c(c(=O)oc2c1)CCCC3)NCc1ccccn1
[9]
  IC50: 35.9 µM (inactive)
[10]
  IC50: 35.9 µM (inactive)
[11]
  IC50: 35.9 µM (inactive)
